Key:
[1] = Metabolic stability in human saliva assessed as biotransformation after 24 hrs relative to unaltered compound; format: ADME; conditions: read-out: Activity
[2] = target: T1, OCTN2 (organic cation/carnitine transporter 2) (Rattus norvegicus, UniProt O70594); assay: Inhibition of rat kidney brush border membrane OCTN2 transporter assessed as [3H]carnitine uptake after 30 mins relative to control; set-up: scale not given: the % may be the effect or the level left; conditions: probe [3H]carnitine, read-out: Activity
T1 sequence (O70594 whole entry): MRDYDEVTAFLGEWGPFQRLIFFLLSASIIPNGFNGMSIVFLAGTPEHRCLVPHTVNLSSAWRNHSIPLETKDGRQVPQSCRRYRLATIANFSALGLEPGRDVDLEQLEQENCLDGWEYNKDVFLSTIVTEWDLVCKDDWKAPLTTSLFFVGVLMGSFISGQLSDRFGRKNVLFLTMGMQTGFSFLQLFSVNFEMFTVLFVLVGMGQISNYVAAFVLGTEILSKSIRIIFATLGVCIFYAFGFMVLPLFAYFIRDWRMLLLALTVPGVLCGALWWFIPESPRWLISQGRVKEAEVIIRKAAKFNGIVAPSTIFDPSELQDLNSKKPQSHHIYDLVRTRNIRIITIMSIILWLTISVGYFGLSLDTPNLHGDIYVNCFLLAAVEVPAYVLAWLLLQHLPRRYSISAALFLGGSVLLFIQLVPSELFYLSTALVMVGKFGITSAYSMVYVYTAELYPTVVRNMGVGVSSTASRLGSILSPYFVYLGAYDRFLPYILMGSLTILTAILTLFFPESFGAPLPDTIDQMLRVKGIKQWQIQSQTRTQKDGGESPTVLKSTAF

[3] = Metabolic stability in human RBC assessed as biotransformation after 24 hrs relative to unaltered compound; format: ADME, cell-based, Erythrocyte; conditions: red blood cells (RBC), read-out: Activity
[4] = Metabolic stability in human RBC assessed as nitrite or nitrate production after 24 hrs; format: ADME, cell-based; conditions: erythrocyte
[5] = Metabolic stability in human plasma assessed as biotransformation after 24 hrs relative to unaltered compound
[6] = target: T2, Organic cation/carnitine transporter 2 (Rattus norvegicus, UniProt O70594); assay: Inhibition of rat kidney brush border membrane OCTN2 transporter assessed as [3H]carnitine uptake after 10 mins
T2 sequence (O70594 whole entry): T1 sequence (O70594 whole entry)

[7] = Metabolic stability in phosphate buffer saline assessed as biotransformation after 24 hrs relative to unaltered compound; format: ADME; conditions: phosphate buffered saline; read-out: Activity

| SMILES | metabolised at 24 h [1] | activity at 0.5 h [2] | metabolised at 24 h [3] | Activity [4] | metabolised at 24 h [5] | IC50 [6] | degraded at 24 h [7] |
| --- | --- | --- | --- | --- | --- | --- | --- |
| C[N+](C)(C)C[C@H](CC(=O)O)OC(=O)CCCCCO[N+](=O)[O-].[Cl-] | 100% | 20% | 100% | 23 nmol/mL | 45% | 76 µM | 100% |
| CCOC(=O)C[C@@H](C[N+](C)(C)C)OC(=O)CCCCCO[N+](=O)[O-].[Cl-] | 100% | 1.5% | 100% | 22 nmol/mL | 100% |  | 100% |
| CCOC(=O)C[C@@H](C[N+](C)(C)C)OC(=O)CCCCCCCCCCCCCCCO[N+](=O)[O-].[Cl-] | 75% | 3.1% | 73% | 40 nmol/mL | 100% | 443 µM | 100% |
| C[N+](C)(C)C[C@H](CC(=O)O)OC(=O)CCCCCCCCCCCCCCCO[N+](=O)[O-].[Cl-] | 100% | 16.3% | 56% | 62 nmol/mL | 100% | 53 µM | 100% |
